The record followed here is publication PMC8989696, “Characterization of furathiocarb metabolism in in-vitro human liver microsomes and recombinant cytochrome P450 enzymes” (Toxicology Reports, 2022).

A short description of the data set: Correlation of furathiocarb metabolite formation with model CYP substrate activities in ten human hepatic microsomes. The following applies: 20 min, n = 10; for Linear correlation coefficient, Carbofuran metabolic pathway: 50 μM furathiocarb. Format: in vitro ADME. On the procedure:
A set of ten livers was used to assess the metabolism of furathiocarb in the individual livers as well as to correlate the activities with a model CYP substrate. (Detailed information is available as Supplementary materials).
The kinetic parameters Vmax and Km were calculated by nonlinear regression. Bivariate linear Pearson’s correlation coefﬁcients (r2) were calculated between metabolite formations and model activities in the livers. GraphPad Prism 9 Software (Inc., San Diego, CA) Prism 9.0.0 (San Diego, CA) was used for kinetic parameters and correlation coefﬁcients analysis. The IC50 values were determined by linear regression analysis using OriginPro 2020 (MicroCal Software, Inc., Northampton, MA.
Metabolites of bupropion, amodiaquine, tolbutamide, omeprazole, dextromethorphan, chlorzoxazone, and midazolam were analyzed by a Shimadzu VP series high-performance liquid chromatograph with an autoinjector (Shimadzu, Kyoto, Japan). The analytical column was a Waters Symmetry C18 (3.9 mm x 150 mm, particle size of 5 µm) together with a Lichospher 100 RP-18 4.0 mm x 4.0 mm precolumn (Merck, Darmstadt, Germany). Chromatographic methods were isocratic, except in the case of omeprazole when a linear gradient elution from 15 to 35% A in 8 min was used. Mobile phases were pumped at a flow rate of 1.0 ml/min. The injection volume used was 20 µl. The concentrations of metabolites were calculated from peak height ratios of the UV chromatograms on the basis of standard calibration curves of authentic metabolites. Metabolites of ethoxyresorufin, ethoxycoumarin, coumarin, and pentoxyresorufin were analyzed fluorometrically. […] Fresh […] dilutions from stock solution of DMSO were used for each assay. The final amount of DMSO was 1% in incubation mixtures. For chlorzoxazone 6-hydroxylation the solvent was evaporated because of the potent inhibition effect of DMSO on CYP2E1, and the residue was diluted with 10 µl of lipid solution. Lipid solution was prepared by adding 8 µl of dimethyldioctadecylammonium-bromide in chloroform (100 mg/ml) to 200 µl L-α-phosphatidylethanolamine dioleyl [C18:1 (cis)-9] in chloroform. This mixture was evaporated with a stream of nitrogen flow, 2 ml of water was added, and the final mixture was sonicated (Branson Sonifier 250 GWB) on an ice bath for 10 min by using 50% power.
Cytochrome P450 enzyme activity characterizations as well as incubations with individual human hepatic microsomes were performed at the same time. A bank of 10 livers was used to assess the metabolism of furathiocarb in individual livers as well as to correlate the activities with model P450 substrate activities. A correlation was performed between the formation of furathiocarb metabolites and each CYP activity across the human liver set. For all data points the mean of duplicate incubations were used. […] Bivariate linear Pearson’s correlation coefficients (r) were calculated between metabolite formations and model activities in livers. […]

Marks after values point to notes of the source that are not given here.

As to `CCCCOC(=O)N(C)SN(C)C(=O)Oc1cccc2c1OC(C)(C)C2` [furathiocarb, Furathiocarb], the “Linear correlation coefficient, Carbofuran metabolic pathway” value is, setting by setting: (vs CYP1A1/2 7-Ethoxyresorufin-O-deethylation (EROD)) 0.2493; (vs CYP2A6 Coumarin-7-hydroxylation (OH-COU)) 0.2303; (vs CYP2B6 Bupropion hydroxylation (OH-BUP)) 0.0023; (vs CYP2C8 Amodiaquine-desethylation (deEt-AMO)) 0.1814; (vs CYP2C9 Tolbutamide hydroxylation (OH-TOL)) 0.1126; (vs CYP2C19 Omeprazole-5-hydroxylation (5-OH-OME), P < 0.0001) 0.9074 **. Further, the “Linear correlation coefficient, Carbofuran metabolic pathway” value (vs CYP2D6 Dextromethorphan-O-desmethylation (O-dem-DEX)) was determined as 0.0059; the “Linear correlation coefficient, Carbofuran metabolic pathway” value (vs CYP2E1 Chlorzoxazone-6-hydroxylation (OH-CLZ)) is 0.1101; the “Linear correlation coefficient, Carbofuran metabolic pathway” value (vs CYP3A4 Midazolam-1'-hydroxylation (1-OH-MDZ), P = 0.0001) is given as 0.8513 *; the “Linear correlation coefficient, Carbofuran metabolic pathway” value (vs CYP3A4 Omeprazole sulfoxidation (SO2-OME), P < 0.0001) is reported as 0.9632 **. Further, the “Linear correlation coefficient, -OH/SO4 furathiocarb Metabolite B” value (vs CYP2A6 Coumarin-7-hydroxylation (OH-COU), 100 μM furathiocarb) stood at 0.1259; the “Linear correlation coefficient, -OH/SO4 furathiocarb Metabolite B” value (vs CYP3A4 Midazolam-1'-hydroxylation (1-OH-MDZ), 100 μM furathiocarb) is reported as 0.3282; the “Linear correlation coefficient, -OH/SO4 furathiocarb Metabolite B” value (vs CYP3A4 Omeprazole sulfoxidation (SO2-OME), 100 μM furathiocarb) was determined as 0.2793. The “Linear correlation coefficient, -OH/SO4 furathiocarb Metabolite A” value (vs CYP2C19 Omeprazole-5-hydroxylation (5-OH-OME), 100 μM furathiocarb) is 0.4683.
